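Assay format: 96-well plates, 48-hour exposure. At the GI50, growth is halved. The concentration for full growth arrest is given as TGI.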
Assays:
Assay in all cases: NCI-60 cell line screen, 48 h
A549 NSCLC = system: A549 NSCLC
HOP-62 NSCLC = system: HOP-62 NSCLC
COLO 205 colon = system: COLO 205 colon
NCI-H226 lung = system: NCI-H226 lung
HCC-2998 colon = system: HCC-2998 colon
SK-OV-3 ovarian = system: SK-OV-3 ovarian
SW-620 colon = system: SW-620 colon
UACC-62 melanoma = system: UACC-62 melanoma
NCI-H522 lung = system: NCI-H522 lung
NCI-H460 lung = system: NCI-H460 lung

SMILES | TGI (A549 NSCLC) | TGI (HOP-62 NSCLC) | TGI (COLO 205 colon) | TGI (NCI-H226 lung) | TGI (HCC-2998 colon) | TGI (SK-OV-3 ovarian) | TGI (SW-620 colon) | TGI (UACC-62 melanoma) | TGI (NCI-H522 lung) | GI50 (A549 NSCLC) | GI50 (HOP-62 NSCLC) | GI50 (COLO 205 colon) | GI50 (NCI-H226 lung) | GI50 (HCC-2998 colon) | GI50 (SW-620 colon) | GI50 (NCI-H460 lung) | TGI (NCI-H460 lung) | GI50 (UACC-62 melanoma) | GI50 (NCI-H522 lung) | GI50 (SK-OV-3 ovarian)
Nc1c(O)cc(N=C2C(=O)C=CC=C2C(=O)O)c(O)c1C(=O)O | > 100 µM | > 100 µM | > 100 µM | > 100 µM | > 31.6 µM | > 100 µM | > 100 µM | > 100 µM | > 100 µM |  |  |  |  |  |  |  |  |  |  | 
O=[N+]([O-])c1ccc(Oc2nc(Nc3ccc(O[C@H]4CO[C@H]5[C@@H]4OC[C@@H]5O)c(Cl)c3)ncc2F)c(Cl)c1 | 6.15 µM | 4.65 µM | 3.78 µM | 2.5 µM | 7.07 µM |  | 12.6 µM | 2.27 µM | 5.6 µM | 1.86 µM | 1.63 µM | 1.42 µM | 0.73 µM | 2.12 µM | 1.38 µM | 0.853 µM | 2.98 µM | 0.843 µM | 1.17 µM | 
O=C(CCC(=O)Nc1ccc(Cl)c(Cl)c1)CC(=O)c1ccc(F)cc1 | > 100 µM | > 100 µM | > 100 µM | > 100 µM | > 100 µM | > 100 µM | > 100 µM | > 100 µM |  |  |  |  |  |  |  |  | > 100 µM |  |  | 
CCCCCCCCCCCCCCCCNCCCN(C)CCCN | 32.1 µM |  | 46.6 µM | 39.3 µM | 33.4 µM | 34.6 µM | 36.3 µM | 33.2 µM | 32.3 µM |  |  |  |  |  |  |  | 34.1 µM |  |  | 
CS(=O)(=O)NNS(=O)(=O)c1ccccc1 | > 100 µM | > 100 µM | > 100 µM | > 100 µM | > 100 µM |  | > 100 µM | > 100 µM | > 100 µM |  |  |  |  |  |  |  | > 100 µM |  |  | 
CC(=O)N1N=C(c2ccc(Nc3ccnc4cc(Cl)ccc34)cc2)CC1c1ccc(Cl)cc1 (stereo unspecified) | > 100 µM | > 100 µM | > 100 µM | > 100 µM | > 100 µM |  | > 100 µM | > 100 µM | > 100 µM | 8.81 µM | > 100 µM | 5.93 µM | > 100 µM | > 100 µM | > 100 µM | > 100 µM | > 100 µM | 2.95 µM | 5.05 µM | 
CC(=O)NC1C(OCc2ccccc2)OC(CO)C(O)C1OC(C)C(=O)N[C@@H](C)C(=O)N[C@H](CCC(=O)OCCNc1c2ccccc2nc2cccc([N+](=O)[O-])c12)C(N)=O (stereo partly specified) | 0.0173 µM |  | 0.0026 µM | 0.0217 µM | 0.00378 µM | 0.0288 µM | 0.00283 µM | 0.00203 µM | 0.00669 µM |  |  |  |  |  |  |  | 0.00137 µM |  |  | 
COC1=C(C)C(=O)c2c(c(CCCl)c3n2CCC3O)C1=O (stereo unspecified) |  | 1.83 µM | 0.72 µM | 5.5 µM | 1.57 µM | 3.37 µM | 15.8 µM | 1.28 µM | 1.17 µM |  | 0.235 µM | 0.203 µM | 0.764 µM | 0.348 µM | 1.09 µM | 0.178 µM | 2.79 µM | 0.319 µM | 0.224 µM | 0.412 µM
Cc1cn(C2C=CC(CO)O2)c(=O)[nH]c1=O (stereo unspecified) | > 1000 µM | > 1000 µM | > 1000 µM | > 1000 µM | > 1000 µM | > 1000 µM | > 1000 µM | > 1000 µM | > 1000 µM |  |  |  |  |  |  |  |  |  |  | 
Cc1ccc(/C=C2\CN(C(=O)C(Cl)Cl)C/C(=C\c3ccc(C)cc3)C2=O)cc1 |  | 1.28 µM | 0.695 µM | 0.622 µM | 0.33 µM | > 100 µM | 0.234 µM | 0.632 µM |  | 0.293 µM | 0.298 µM | 0.241 µM | 0.245 µM | 0.176 µM | 0.0554 µM |  |  | 0.237 µM |  | 1 µM
COc1ccc2c(C3(c4cn(C)c5cc(OC)ccc45)C(=O)Nc4ccc(Cl)cc43)cn(C)c2c1 |  | > 100 µM | 4.73 µM | > 100 µM | > 100 µM | > 100 µM | > 100 µM | 25 µM | 12.7 µM |  | 4.2 µM | 1.95 µM | 5.44 µM | 6.35 µM | 4.67 µM | 3.29 µM | 11.7 µM | 3.49 µM | 3.38 µM | 5.07 µM
O=C(/C=C/c1ccco1)c1ccc(NCc2nc3ccccc3[nH]2)cc1 |  | 35.6 µM | 26.7 µM | 13.8 µM | 27.7 µM | 43.3 µM | 34.3 µM | 30.2 µM | 21.4 µM |  |  |  |  |  |  |  | > 100 µM |  |  | 
O=[N+]([O-])c1ccc(-c2noc(-c3ccc(Cl)cc3)c2C2=NCCN2)cc1 | > 100 µM | > 100 µM | > 100 µM | > 100 µM | > 100 µM |  | > 100 µM | > 100 µM | > 100 µM |  |  |  |  |  |  |  | > 100 µM |  |  | 
CCOC(=O)c1c(C)n(Cc2ccccc2)c2c1cc(O)c1[nH]c(Cc3ccccc3)nc12 | 65.7 µM | > 85.6 µM | > 54.8 µM | > 75.9 µM | 2.04 µM | > 100 µM | > 60 µM | > 100 µM |  | 12.4 µM | 17.4 µM | 24.7 µM | 12.1 µM |  | 22.1 µM | 4.23 µM | > 100 µM | 23.8 µM |  | 23.2 µM

Reference: PubChem BioAssay (NCI)
